Test results taken from US7638521B2, “3-guanidinocarbonyl-1-heteroaryl-indole derivatives, preparation process, their use as medicaments, and pharmaceutical compositions comprising them” (sanofi-aventis Deutschland GmbH, priority 2002, dated 2009).
Where a name gives a salt, the structure may show the parent alone.

What was measured:
NHE-1 subtype = target: T1, NHE-1 subtype (Homo sapiens, UniProt P19634); assay: NHE inhibition FLIPR test (intracellular pH recovery, BCECF) in transfected LAP-1 cells; assay type: cell-based; details: transfected LAP-1 cell line expressing NHE-1 subtype, pHi recovery after acidification, read-out: IC50 (NHE1)
T1 construct: expressed in transfected cells; host or cells: LAP-1 (parental line without endogenous NHE activity), G418 selection
T1 sequence (P19634 whole entry): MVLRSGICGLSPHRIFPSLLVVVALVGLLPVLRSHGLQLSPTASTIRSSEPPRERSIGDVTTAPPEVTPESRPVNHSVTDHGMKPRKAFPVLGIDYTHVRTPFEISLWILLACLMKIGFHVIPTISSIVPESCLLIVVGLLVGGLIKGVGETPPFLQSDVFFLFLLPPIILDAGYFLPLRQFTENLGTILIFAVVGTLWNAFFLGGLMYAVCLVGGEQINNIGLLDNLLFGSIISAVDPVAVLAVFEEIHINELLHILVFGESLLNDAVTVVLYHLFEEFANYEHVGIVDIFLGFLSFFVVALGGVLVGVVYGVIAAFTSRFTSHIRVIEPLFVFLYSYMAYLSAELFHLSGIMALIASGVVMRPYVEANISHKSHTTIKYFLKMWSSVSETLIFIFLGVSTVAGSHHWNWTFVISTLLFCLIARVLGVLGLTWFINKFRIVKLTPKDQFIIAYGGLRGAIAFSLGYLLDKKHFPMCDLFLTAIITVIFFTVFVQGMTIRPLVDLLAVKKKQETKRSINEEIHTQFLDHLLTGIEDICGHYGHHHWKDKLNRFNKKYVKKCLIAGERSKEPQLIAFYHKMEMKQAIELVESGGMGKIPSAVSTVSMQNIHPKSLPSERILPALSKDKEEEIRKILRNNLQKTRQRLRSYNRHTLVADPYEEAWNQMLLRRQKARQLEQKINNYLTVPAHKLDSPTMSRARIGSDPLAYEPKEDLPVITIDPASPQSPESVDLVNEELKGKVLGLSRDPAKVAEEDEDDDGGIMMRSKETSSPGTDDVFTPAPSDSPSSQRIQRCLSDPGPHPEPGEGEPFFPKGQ
Experimental: The NHE inhibitory activities (IC50 values) of the compounds according to the invention were determined by a FLIPR test. The test is performed in the FLIPR (Fluorescent Imaging Plate Reader) equipped with clear-bottomed and black-walled 96-well microtitration plates. […] The growth medium for the transfected cells (Iscove+10% foetal calf serum) also comprises G418 as selection antibiotic to ensure the presence of transfected sequences. The actual test begins by eliminating the growth medium and adding 100 μl of loading buffer per well (5 μM of BCECF-AM [2′,7′-bis(2-carboxyethyl)-5-(6)-carboxyfluoresceine acetoxymethyl ester] in 20 mM of NH4Cl, 115 mM of choline chloride, 1 mM of CaCl2, 5 mM of KCl, 20 mM of HEPES and 5 mM of glucose; pH 7.4 (adjusted with KOH). The cells are then incubated for 20 minutes at 37° C. This incubation results in the loading of the fluorescent dye into the cells, the fluorescence intensity of which depends on the pHi, and on the NH4Cl, which results in a slight basification of the cells. The precursor BCECF-AM, a non-fluorescent dye, is, as an ester, capable of crossing the membrane. The actual dye, which is incapable of crossing the membrane, is released inside the cell by esterases. After this 20-minute incubation, the loading buffer, which comprises NH4Cl and free BCECF-AM, is removed by washing three times in the cell washing device (Tecan Columbus), each wash being performed with 400 μl of washing buffer (133.8 mM of choline chloride, 4.7 mM of KCl, 1.25 mM of MgCl2, 1.25 mM of CaCl2, 0.97 mM of K2HPO4, 0.23 mM of KH2PO4, 5 mM of HEPES and 5 mM of glucose; pH 7.4 (adjusted with KOH)). The residual volume remaining in the wells is 90 μl (possibly between 50 and 125 μl). This washing step removes the free BCECF-AM and results in an intracellular acidification (pHi of 6.3-6.4) due to the removal of the external ammonium ions. As the equilibrium of the intracellular ammonium with the aqueous ammonia and the protons, by removal of the extracellular ammonium and by the subsequent immediate crossing of the aqueous ammonia across the cell membrane, is disrupted, the washing process results in intracellular protons remaining, which is the cause of the intracellular acidification. This acidification can result finally in the death of the cells if it lasts long enough. It is important here for the washing buffer to be free of sodium (<1 mM), otherwise the extracellular sodium ions would result in an immediate increase in the pHi on account of the activity of the cloned NHE isoforms. It is also important for all the buffers used (loading buffer, washing buffer and regeneration buffer) not to contain any HCO3-ions, otherwise the presence of bicarbonate would result in the activation of bicarbonate-dependent systems that disrupt the pHi regulation, which systems are contained in the LAP-1 parental cell line. The microtiter plates containing acidified cells are then transferred (up to 20 minutes after the acidification) to the FLIPR. In the FLIPR, the intracellular fluorescent dye is activated with light of a wavelength of 488 nm, which is generated by an argon laser, and the measuring parameters (laser power, illumination time and diaphragm of the […] camera integrated into the FLIPR) are chosen such that the average value of the fluorescent signal per well is between 30,000 and 35,000 relative fluorescence units. The actual measurement in the FLIPR starts with a photograph being taken by the CCD camera every two seconds under software control. After 10 seconds, the increase in the intracellular pH is initiated by adding 90 μl of regeneration buffer (133.8 mM of NaCl, 4.7 mM of KCl, 1.25 mM of MgCl2, 1.25 mM of CaCl2, 0.97 mM of K2HPO4, 0.23 mM of KH2PO4, 10 mM of HEPES and 5 mM of glucose; pH 7.4 (adjusted with NaOH)) using a 96-well pipette device incorporated into the FLIPR. Some wells, to which is added pure regeneration buffer, serve as positive controls (100% NHE activity). […]

| Structure (SMILES) | IC50 (NHE-1 subtype) [nM] | melting point [°C] |
| --- | --- | --- |
| Cl.N=C(N)NC(=O)c1cn(-c2ccnc3cc(C(F)(F)F)ccc23)c2ccccc12 [Example 3, 3-Guanidinocarbonyl-1-(7-(trifluoromethyl)quinol-4-yl)-1H-indole hydrochloride] | 250 | 238 |
| Cl.N=C(N)NC(=O)c1cn(-c2ccnc3c(C(F)(F)F)cccc23)c2ccccc12 [Example 4, 3-Guanidinocarbonyl-1-(8-(trifluoromethyl)quinol-4-yl)-1H-indole hydrochloride] | 1470 | 212 |
| Cc1cc(-n2cc(C(=O)N=C(N)N)c3ccccc32)c2ccccc2n1 [Example 8, N-[1-(2-Methyl-quinolin-4-yl)-1H-indole-3-carbonyl]-guanidine trifluoroacetate] | 7.2 |  |
| NC(N)=NC(=O)c1cn(-c2ccnc3cc(Cl)ccc23)c2ccccc12 [Example 9, N-[1-(7-Chloro-quinolin-4-yl)-1H-indole-3-carbonyl]-guanidine trifluoroacetate] | 250 |  |
| COc1ccc2c(c1)c(C(=O)N=C(N)N)c(C)n2-c1ccnc2cc(Cl)ccc12 [Example 10, N-[1-(7-Chloro-quinolin-4-yl)-5-methoxy-2-methyl-1H-indole-3-carbonyl]-guanidine trifluoroacetate] | 3230 |  |
| COc1ccc2c(c1)c(C(=O)N=C(N)N)c(C)n2-c1ccnc2ccc(F)cc12 [Example 12, N-[1-(6-Fluoro-quinolin-4-yl)-5-methoxy-2-methyl-1H-indole-3-carbonyl]-guanidine trifluoroacetate] | 2640 |  |
| NC(N)=NC(=O)c1cn(-c2ccnc3c(F)cccc23)c2ccccc12 [Example 13, N-[1-(8-Fluoro-quinolin-4-yl)-1H-indole-3-carbonyl]-guanidine trifluoroacetate] | 2.5 |  |
| COc1ccc2c(c1)c(C(=O)N=C(N)N)c(C)n2-c1ncnc2ccc(Cl)cc12 [Example 14, N-[1-(6-Chloro-quinazolin-4-yl)-5-methoxy-2-methyl-1H-indole-3-carbonyl]-guanidine trifluoroacetate] | 2560 |  |

More lines, in order of falling IC50 (NHE-1 subtype), values ahead:

| IC50 (NHE-1 subtype) [nM] | melting point [°C] | Structure (SMILES) |
| --- | --- | --- |
| 2360 | 216 | Cl.N=C(N)NC(=O)c1cn(-c2cc(C(F)(F)F)nc3ccccc23)c2ccccc12 [Example 1, 3-Guanidinocarbonyl-1-(2-(trifluoromethyl)quinol-4-yl)-1H-indole hydrochloride] |
| 240 | 266 | COc1ccc2c(-n3cc(C(=O)NC(=N)N)c4ccccc43)ccnc2c1.Cl [Example 6, 3-Guanidinocarbonyl-1-(7-methoxyquinol-4-yl)-1H-indole hydrochloride] |
| 220 | 260 | Cl.N=C(N)NC(=O)c1cn(-c2ccnc3ccc(C(F)(F)F)cc23)c2ccccc12 [Example 2, 3-Guanidinocarbonyl-1-(6-(trifluoromethyl)quinol-4-yl)-1H-indole hydrochloride] |
| 120 | 266 | COc1ccc2nccc(-n3cc(C(=O)NC(=N)N)c4ccccc43)c2c1.Cl [Example 5, 3-Guanidinocarbonyl-1-(6-methoxyquinol-4-yl)-1H-indole hydrochloride] |
| 10 |  | NC(N)=NC(=O)c1cn(-c2ccnc3ccc(F)cc23)c2ccccc12 [Example 11, N-[1-(6-Fluoro-quinolin-4-yl)-1H-indole-3-carbonyl]-guanidine trifluoroacetate] |
| 1.2 | 244 | Cl.Cn1ccc2c(-n3cc(C(=O)NC(=N)N)c4ccccc43)ncnc21 [Example 7, 3-Guanidinocarbonyl-1-(7-methyl-7H-pyrrolo[2,3-d]pyrimidin-4-yl)-1H-indole hydrochloride] |
